Reference: ChEMBL document CHEMBL5212743, “Selectivity Literature for EUbOPEN Chemogenomics Library wave 3” (2023)

Columns and labels:
[1] = molecular target: Kappa-type opioid receptor (Homo sapiens, UniProt P41145); test: Selectivity interaction (CEREP Wide Ligand screening panel (ion channels, receptors, enzymes)) EUB0000304b OPRK1; details: at 10 µM
[2] = molecular target: Muscarinic acetylcholine receptor M3 (Homo sapiens) (UniProt P20309); test: Selectivity interaction (CEREP Wide Ligand screening panel (ion channels, receptors, enzymes)) EUB0000304b CHRM3; details: at 10 µM
Sequence of Muscarinic acetylcholine receptor M3 (Homo sapiens) (P20309 whole entry, looked up): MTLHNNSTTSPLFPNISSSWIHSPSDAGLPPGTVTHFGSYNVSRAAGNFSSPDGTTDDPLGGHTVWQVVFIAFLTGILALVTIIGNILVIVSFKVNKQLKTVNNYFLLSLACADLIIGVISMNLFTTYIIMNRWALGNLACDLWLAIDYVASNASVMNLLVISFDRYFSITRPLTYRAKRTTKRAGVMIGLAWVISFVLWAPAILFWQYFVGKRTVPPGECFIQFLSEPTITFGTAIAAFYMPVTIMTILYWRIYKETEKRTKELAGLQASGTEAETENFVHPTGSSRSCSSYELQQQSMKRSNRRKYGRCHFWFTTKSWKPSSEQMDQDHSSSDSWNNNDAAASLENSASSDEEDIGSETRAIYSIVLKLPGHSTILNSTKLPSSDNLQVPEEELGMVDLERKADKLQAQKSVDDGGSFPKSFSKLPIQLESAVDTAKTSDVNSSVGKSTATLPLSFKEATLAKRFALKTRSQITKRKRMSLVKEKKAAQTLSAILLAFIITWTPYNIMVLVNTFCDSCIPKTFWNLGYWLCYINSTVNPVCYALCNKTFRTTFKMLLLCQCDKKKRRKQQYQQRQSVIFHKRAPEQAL

[3] = molecular target: T1, Prostaglandin G/H synthase 2 (Homo sapiens) (UniProt P35354); test: Selectivity interaction (CEREP Wide Ligand screening panel (ion channels, receptors, enzymes)) EUB0000304b PTGS2; details: at 10 µM
T1 sequence (whole entry): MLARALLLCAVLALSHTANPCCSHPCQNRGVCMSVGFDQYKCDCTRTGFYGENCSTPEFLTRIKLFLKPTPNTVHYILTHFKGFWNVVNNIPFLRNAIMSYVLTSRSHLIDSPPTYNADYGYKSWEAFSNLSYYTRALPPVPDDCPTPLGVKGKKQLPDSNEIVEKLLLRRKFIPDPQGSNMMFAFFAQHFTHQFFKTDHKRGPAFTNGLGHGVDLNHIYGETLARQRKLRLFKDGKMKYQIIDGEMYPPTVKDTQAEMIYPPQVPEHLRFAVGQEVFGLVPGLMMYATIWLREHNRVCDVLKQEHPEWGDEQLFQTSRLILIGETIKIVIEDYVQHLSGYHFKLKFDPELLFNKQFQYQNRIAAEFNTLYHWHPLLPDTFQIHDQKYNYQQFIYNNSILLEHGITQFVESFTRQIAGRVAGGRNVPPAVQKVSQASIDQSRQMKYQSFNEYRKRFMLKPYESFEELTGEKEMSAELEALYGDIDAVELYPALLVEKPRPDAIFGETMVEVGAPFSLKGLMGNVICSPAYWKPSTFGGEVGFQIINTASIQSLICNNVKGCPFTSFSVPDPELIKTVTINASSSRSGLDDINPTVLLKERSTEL

[4] = molecular target: 5-hydroxytryptamine receptor 2B (Homo sapiens, UniProt P41595); test: Selectivity interaction (CEREP Wide Ligand screening panel (ion channels, receptors, enzymes)) EUB0000304b HTR2B; details: at 10 µM
Sequence of 5-hydroxytryptamine receptor 2B (P41595 whole entry): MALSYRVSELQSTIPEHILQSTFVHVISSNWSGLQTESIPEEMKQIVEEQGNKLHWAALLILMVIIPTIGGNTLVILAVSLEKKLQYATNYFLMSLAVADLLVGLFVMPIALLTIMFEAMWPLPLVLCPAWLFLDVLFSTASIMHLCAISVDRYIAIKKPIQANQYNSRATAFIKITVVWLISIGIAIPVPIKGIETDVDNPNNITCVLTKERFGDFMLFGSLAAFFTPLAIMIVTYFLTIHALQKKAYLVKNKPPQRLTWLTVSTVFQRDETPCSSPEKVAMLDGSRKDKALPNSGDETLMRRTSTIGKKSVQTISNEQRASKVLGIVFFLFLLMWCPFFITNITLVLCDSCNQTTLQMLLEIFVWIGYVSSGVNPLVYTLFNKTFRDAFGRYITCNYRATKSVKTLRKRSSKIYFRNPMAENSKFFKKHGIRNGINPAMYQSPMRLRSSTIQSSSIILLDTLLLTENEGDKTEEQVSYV

[5] = molecular target: Sodium channel protein type 2 subunit alpha (Homo sapiens, UniProt Q99250); test: Selectivity interaction (CEREP Wide Ligand screening panel (ion channels, receptors, enzymes)) EUB0000304b SCN2A; details: at 10 µM
[6] = molecular target: Substance-P receptor (Homo sapiens) (UniProt P25103); test: Selectivity interaction (CEREP Wide Ligand screening panel (ion channels, receptors, enzymes)) EUB0000304b TACR1; details: at 10 µM
Sequence of Substance-P receptor (Homo sapiens) (P25103 whole entry): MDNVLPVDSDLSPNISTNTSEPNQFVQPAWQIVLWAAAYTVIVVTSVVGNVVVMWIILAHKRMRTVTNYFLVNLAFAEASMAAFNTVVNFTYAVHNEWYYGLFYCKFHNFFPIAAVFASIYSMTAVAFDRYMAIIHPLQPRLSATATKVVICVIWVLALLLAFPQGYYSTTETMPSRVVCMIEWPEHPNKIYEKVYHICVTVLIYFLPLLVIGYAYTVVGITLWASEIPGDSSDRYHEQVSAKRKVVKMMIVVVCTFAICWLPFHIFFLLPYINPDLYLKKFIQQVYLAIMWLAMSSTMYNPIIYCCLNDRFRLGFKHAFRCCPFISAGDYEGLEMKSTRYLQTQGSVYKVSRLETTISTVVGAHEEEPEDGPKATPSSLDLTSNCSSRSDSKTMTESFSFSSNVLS

[7] = molecular target: High affinity choline transporter 1 (Homo sapiens) (UniProt Q9GZV3); test: Selectivity interaction (CEREP Wide Ligand screening panel (ion channels, receptors, enzymes)) EUB0000304b SLC5A7; details: at 10 µM
Sequence of High affinity choline transporter 1 (Homo sapiens) (Q9GZV3 whole entry): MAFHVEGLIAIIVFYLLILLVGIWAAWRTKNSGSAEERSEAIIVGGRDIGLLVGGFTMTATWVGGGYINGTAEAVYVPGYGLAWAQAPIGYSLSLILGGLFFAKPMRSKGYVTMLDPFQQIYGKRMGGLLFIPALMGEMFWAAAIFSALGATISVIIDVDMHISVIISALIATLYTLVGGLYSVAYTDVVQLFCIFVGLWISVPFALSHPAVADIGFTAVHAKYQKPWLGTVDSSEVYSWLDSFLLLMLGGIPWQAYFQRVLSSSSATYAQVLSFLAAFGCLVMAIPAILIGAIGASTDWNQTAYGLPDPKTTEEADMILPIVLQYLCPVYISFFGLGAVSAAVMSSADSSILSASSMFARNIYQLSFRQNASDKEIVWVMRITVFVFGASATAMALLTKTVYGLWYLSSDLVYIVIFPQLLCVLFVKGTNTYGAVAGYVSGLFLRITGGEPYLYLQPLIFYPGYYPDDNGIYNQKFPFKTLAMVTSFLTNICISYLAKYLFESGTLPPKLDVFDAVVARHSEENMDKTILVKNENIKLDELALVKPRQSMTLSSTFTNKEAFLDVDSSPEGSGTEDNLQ

Mu-type opioid receptor = Mu-type opioid receptor (Homo sapiens, UniProt P35372); test: Selectivity interaction (CEREP Wide Ligand screening panel (ion channels, receptors, enzymes)) EUB0000304b OPRM1; details: at 10 µM
Sequence of Mu-type opioid receptor (P35372 whole entry): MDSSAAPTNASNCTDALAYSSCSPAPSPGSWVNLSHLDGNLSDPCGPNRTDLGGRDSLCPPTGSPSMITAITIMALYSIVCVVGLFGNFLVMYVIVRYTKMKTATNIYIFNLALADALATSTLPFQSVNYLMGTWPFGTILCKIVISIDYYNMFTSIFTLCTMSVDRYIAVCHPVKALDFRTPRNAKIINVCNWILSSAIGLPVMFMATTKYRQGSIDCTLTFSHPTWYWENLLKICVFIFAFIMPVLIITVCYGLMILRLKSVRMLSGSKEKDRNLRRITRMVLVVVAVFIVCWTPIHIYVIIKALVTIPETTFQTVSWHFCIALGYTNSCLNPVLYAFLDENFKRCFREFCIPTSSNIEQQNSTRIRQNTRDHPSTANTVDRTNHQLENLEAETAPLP

[8] = molecular target: Adenosine receptor A2b (Homo sapiens) (UniProt P29275); test: Selectivity interaction (CEREP Wide Ligand screening panel (ion channels, receptors, enzymes)) EUB0000304b ADORA2B; details: at 10 µM
Sequence of Adenosine receptor A2b (Homo sapiens) (P29275 whole entry): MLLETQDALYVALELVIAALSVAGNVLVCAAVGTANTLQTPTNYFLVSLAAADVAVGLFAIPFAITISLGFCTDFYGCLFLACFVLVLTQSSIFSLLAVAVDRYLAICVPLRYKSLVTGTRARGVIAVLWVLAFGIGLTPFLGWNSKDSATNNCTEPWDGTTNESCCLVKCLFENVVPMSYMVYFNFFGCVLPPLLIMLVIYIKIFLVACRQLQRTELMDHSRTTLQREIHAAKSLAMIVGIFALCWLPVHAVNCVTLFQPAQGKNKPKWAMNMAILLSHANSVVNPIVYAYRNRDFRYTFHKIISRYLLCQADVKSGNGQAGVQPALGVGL

[9] = molecular target: Gastrin/cholecystokinin type B receptor (Homo sapiens) (UniProt P32239); test: Selectivity interaction (CEREP Wide Ligand screening panel (ion channels, receptors, enzymes)) EUB0000304b CCKBR; details: at 10 µM
Sequence of Gastrin/cholecystokinin type B receptor (Homo sapiens) (P32239 whole entry): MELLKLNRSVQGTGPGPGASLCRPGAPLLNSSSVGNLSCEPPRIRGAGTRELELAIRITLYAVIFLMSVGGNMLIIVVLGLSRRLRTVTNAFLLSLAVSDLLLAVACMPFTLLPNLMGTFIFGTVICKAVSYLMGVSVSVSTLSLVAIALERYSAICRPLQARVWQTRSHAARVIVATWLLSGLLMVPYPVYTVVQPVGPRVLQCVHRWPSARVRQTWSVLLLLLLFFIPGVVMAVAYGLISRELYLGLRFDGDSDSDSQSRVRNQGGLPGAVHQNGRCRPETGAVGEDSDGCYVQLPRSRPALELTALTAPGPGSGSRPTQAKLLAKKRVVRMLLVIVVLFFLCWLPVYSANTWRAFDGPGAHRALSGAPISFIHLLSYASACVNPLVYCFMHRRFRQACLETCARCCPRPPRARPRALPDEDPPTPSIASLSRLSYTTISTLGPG

[10] = molecular target: Melatonin receptor type 1B (Homo sapiens) (UniProt P49286); test: Selectivity interaction (CEREP Wide Ligand screening panel (ion channels, receptors, enzymes)) EUB0000304b MTNR1B; details: at 10 µM
Sequence of Melatonin receptor type 1B (Homo sapiens) (P49286 whole entry): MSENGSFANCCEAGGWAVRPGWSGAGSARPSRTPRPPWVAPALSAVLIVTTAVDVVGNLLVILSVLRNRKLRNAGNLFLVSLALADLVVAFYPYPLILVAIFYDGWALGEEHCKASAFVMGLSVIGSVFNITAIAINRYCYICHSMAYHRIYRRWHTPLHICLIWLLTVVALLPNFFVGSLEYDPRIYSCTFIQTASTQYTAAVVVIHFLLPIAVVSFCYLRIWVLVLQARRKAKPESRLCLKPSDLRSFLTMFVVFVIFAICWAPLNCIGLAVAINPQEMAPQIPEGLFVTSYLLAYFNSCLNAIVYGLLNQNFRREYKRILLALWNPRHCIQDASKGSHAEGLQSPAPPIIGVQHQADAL

[11] = molecular target: T2, Gamma-aminobutyric acid receptor subunit alpha-1 (Homo sapiens, UniProt P14867); test: Selectivity interaction (GPCR panel (PDSP screen)) EUB0000304b GABRA1
T2 sequence (P14867 whole entry): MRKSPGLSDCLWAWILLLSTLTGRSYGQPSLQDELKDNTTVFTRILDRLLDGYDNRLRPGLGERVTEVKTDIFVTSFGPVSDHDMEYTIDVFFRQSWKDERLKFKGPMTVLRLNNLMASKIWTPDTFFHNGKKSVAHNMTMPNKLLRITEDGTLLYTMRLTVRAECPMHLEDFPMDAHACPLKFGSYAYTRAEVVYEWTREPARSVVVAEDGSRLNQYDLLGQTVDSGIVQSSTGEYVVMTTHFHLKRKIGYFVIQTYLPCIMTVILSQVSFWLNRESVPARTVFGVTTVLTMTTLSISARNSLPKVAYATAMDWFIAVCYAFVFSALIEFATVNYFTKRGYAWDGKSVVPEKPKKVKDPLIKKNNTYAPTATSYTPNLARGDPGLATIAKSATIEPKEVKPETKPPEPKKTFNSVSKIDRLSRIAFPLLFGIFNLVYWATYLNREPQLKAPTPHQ

Histamine H4 receptor = Histamine H4 receptor (Homo sapiens, UniProt Q9H3N8); test: Selectivity interaction (GPCR panel (PDSP screen)) EUB0000342a HRH4
Sequence of Histamine H4 receptor (Q9H3N8 whole entry): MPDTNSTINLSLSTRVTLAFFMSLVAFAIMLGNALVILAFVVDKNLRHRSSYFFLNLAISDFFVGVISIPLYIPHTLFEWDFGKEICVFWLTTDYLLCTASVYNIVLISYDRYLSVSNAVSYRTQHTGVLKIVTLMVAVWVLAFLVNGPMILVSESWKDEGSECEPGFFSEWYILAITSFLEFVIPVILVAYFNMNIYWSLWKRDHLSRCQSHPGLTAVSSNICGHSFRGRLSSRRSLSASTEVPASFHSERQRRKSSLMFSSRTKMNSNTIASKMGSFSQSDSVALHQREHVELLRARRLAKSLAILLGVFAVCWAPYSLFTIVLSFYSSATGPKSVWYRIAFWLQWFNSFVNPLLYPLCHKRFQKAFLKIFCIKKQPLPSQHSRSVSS

D(1A) dopamine receptor = D(1A) dopamine receptor (Homo sapiens, UniProt P21728); test: Selectivity interaction (GPCR panel (PDSP screen)) EUB0000342a DRD1
Sequence of D(1A) dopamine receptor (P21728 whole entry): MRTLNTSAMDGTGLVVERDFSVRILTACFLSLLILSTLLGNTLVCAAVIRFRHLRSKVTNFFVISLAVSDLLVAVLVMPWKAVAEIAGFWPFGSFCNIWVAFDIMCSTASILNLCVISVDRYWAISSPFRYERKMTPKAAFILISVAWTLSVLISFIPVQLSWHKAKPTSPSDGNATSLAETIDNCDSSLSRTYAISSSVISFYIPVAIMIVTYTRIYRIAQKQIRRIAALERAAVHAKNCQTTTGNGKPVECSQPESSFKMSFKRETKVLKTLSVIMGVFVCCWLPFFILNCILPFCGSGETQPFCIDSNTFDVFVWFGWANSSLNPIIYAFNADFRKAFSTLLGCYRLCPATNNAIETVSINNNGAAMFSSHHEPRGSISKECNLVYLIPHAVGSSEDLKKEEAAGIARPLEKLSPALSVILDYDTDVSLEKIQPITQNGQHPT

[12] = molecular target: T3, Serine/threonine-protein kinase TAO3 (Homo sapiens) (UniProt Q9H2K8); test: Selectivity interaction (KinomeScan (DiscoverX)) EUB0000306b TAOK3; details: at 1 µM
T3 sequence (whole entry): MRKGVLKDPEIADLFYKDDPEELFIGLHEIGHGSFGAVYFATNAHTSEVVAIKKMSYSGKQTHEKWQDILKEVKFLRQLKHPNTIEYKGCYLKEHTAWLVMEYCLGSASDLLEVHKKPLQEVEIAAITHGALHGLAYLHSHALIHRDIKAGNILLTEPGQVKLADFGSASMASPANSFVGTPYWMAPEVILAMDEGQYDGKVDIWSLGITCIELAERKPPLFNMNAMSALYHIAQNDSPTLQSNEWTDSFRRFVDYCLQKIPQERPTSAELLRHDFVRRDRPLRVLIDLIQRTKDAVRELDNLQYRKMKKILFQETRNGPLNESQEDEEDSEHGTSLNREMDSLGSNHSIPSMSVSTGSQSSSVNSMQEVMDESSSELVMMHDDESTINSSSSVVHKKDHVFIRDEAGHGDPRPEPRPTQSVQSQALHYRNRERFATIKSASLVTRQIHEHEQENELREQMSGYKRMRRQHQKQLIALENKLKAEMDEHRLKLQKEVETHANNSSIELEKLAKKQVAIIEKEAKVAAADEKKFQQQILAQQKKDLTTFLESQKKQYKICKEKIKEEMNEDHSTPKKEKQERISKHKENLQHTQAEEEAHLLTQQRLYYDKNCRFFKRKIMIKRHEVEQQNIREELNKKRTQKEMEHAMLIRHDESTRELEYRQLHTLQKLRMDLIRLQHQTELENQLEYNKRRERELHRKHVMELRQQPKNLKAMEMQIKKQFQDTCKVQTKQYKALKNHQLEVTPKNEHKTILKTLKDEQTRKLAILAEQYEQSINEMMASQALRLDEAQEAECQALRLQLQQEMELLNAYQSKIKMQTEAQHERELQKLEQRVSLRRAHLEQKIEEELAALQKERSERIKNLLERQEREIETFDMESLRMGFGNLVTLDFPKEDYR

[13] = molecular target: T2, Gamma-aminobutyric acid receptor subunit alpha-1; test: Selectivity interaction (GPCR panel (PDSP screen)) EUB0000306b GABRA1
[14] = test system: Mast/stem cell growth factor receptor Kit (Homo sapiens), P10721 [L576P]; test: Selectivity interaction (KinomeScan (DiscoverX)) EUB0000306b KIT; details: at 1 µM
[15] = molecular target: Phosphatidylinositol 4,5-bisphosphate 3-kinase catalytic subunit alpha isoform (Homo sapiens, UniProt P42336); test: Selectivity interaction (KinomeScan (DiscoverX)) EUB0000306b PIK3CA; details: at 1 µM

Sequence of Kappa-type opioid receptor (P41145 whole entry): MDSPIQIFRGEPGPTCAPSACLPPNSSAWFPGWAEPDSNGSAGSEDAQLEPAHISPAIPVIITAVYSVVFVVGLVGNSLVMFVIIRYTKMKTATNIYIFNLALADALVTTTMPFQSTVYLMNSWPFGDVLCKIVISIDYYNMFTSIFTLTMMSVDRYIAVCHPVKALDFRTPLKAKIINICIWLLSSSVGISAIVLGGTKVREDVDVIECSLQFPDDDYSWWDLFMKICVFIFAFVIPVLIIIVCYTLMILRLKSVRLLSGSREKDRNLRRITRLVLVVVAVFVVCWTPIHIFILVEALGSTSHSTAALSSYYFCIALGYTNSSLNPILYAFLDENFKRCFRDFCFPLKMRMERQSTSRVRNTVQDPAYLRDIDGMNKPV

C[C@H](c1ccc(F)cc1)N(Cc1cccc(C(=O)O)c1)C(=O)c1cnc2ccccc2c1 [PF-05105679]
% of effect [1]: 20%
% of effect [2]: 21%
% of effect [3]: 21%
% of effect [4]: 26%
% of effect [5]: 32%
% of effect [6]: 18%
% of effect [7]: 22%
% of effect (Mu-type opioid receptor): 25%
% of effect [8]: 21%
% of effect [9]: 35%
% of effect [10]: 32%
Ki [11]: 1020 nM

O=C(c1ccc(F)cc1)N1CC(COc2ccc(Br)cc2)(C(=O)O)C1 [PF-04475866]
Ki (Histamine H4 receptor): > 10000 nM
Ki (D(1A) dopamine receptor): > 10000 nM

O=C(Nc1cccnn1)N1CCC(=Cc2cccc(Oc3ccc(C(F)(F)F)cn3)c2)CC1
% of control [12]: 42%
Ki [13]: 1140 nM
% of control [14]: 0%
% of control [15]: 45%
